Test results as given in patent US8952014B2, “Pyrimidine derivatives which are CGRP—antagonists” (Boehringer Ingelheim International GmbH, priority 2008, dated 2015).

Biological target: T1, human CGRP receptor (Homo sapiens, UniProt O60894+Q16602)
T1 construct: SK-N-MC membranes (˜20 μg protein) are incubated for 180 minutes at ambient temperature; endogenous in cells; host or cells: SK-N-MC cells (membranes)
Assay: Binding studies with SK-N-MC cells (125I-CGRP displacement from membranes)
Conditions: 50 pM 125I-iodotyrosyl-CGRP, 180 min, ambient temperature
Description: A. Binding Studies with SK-N-MC Cells (Expressing the Human CGRP Receptor)
SK-N-MC membranes (˜20 μg protein) are incubated for 180 minutes at ambient temperature with 50 pM ^125I-iodotyrosyl-Calcitonin-Gene-Related Peptide and increasing concentrations of the test substances in a total volume of 250 μl (assay buffer: 10 mM tris, 50 mM NaCl, 5 mM MgCl2, 1 mM EDTA, pH=7.4). The incubation is ended by rapid filtration through GF/B-glass fibre filters treated with polyethyleneimine (0.1%) using a cell harvester. The protein-bound radioactivity is measured using a gamma counter. Non-specific binding is defined as the bound radioactivity after the presence of 1 μM BIBN4096BS during incubation.
The concentration binding curves are analysed using computer-aided non-linear curve fitting.

T1 sequence (Q16602 23-461): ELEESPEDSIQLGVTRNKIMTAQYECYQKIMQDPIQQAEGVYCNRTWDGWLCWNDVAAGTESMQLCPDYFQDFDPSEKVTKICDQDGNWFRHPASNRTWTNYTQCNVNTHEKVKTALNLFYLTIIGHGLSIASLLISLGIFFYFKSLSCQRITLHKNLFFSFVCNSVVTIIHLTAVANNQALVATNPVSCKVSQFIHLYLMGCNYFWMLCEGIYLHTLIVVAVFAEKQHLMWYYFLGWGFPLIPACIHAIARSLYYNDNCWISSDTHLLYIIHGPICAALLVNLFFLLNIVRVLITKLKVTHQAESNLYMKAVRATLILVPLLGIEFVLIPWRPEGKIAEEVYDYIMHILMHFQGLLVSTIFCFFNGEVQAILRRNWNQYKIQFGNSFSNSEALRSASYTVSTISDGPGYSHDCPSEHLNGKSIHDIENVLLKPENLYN
T1 sequence (O60894 27-148): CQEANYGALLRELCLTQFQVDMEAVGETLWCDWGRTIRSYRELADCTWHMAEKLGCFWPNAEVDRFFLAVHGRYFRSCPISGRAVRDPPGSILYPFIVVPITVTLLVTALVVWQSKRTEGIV

Row | Ki [nM] | Structure (SMILES)
1 | 29 | Cc1cc(Oc2cc(N3CCC4(CC3)OC(=O)Nc3ncccc34)nc(C(F)(F)F)n2)cc2oc(=O)[nH]c12 [(74)]
2 | 26 | Cc1nc(Oc2cc(C)c3[nH]c(=O)oc3c2)cc(N2CCC3(CC2)CC(=O)Nc2ncccc23)n1 [(76)]
3 | 21 | Cc1nc(Oc2cc(C)c3[nH]c(=O)oc3c2)cc(N2CCC3(CC2)C(=O)Nc2ncccc23)n1 [(77)]

The next lines start with the compound.

Row | Structure (SMILES) | Ki [nM]
4 | Cc1cc(Oc2cc(N3CCC4(CC3)OC(=O)Nc3ncccc34)ncc2C#N)cc2oc(=O)[nH]c12 [(75)] | 23
5 | COc1ccc2c(c1)CCN(C1CCN(c3cc(Oc4cc(C(F)(F)F)c5nc(C)[nH]c5c4)ncn3)CC1)C(=O)N2 [(79)] | 11
6 | COc1ccc2c(c1)CCN(C1CCN(c3cc(Oc4cc(C)c5[nH]c(=O)oc5c4)cc[n+]3[O-])CC1)C(=O)N2 [(80)] | 11
